# US12441768B2, “Compositions and methods for treating endometriosis” (EndoMet Biosciences, Inc., priority 2018, dated 2025)
# Like-named read-outs stand apart in the source and are kept apart here. Where a SMILES comes first, the peptide text is derived from it.
# Molecular target: T1, β-catenin (Homo sapiens, UniProt P35222)
# T1 sequence (P35222 1-781): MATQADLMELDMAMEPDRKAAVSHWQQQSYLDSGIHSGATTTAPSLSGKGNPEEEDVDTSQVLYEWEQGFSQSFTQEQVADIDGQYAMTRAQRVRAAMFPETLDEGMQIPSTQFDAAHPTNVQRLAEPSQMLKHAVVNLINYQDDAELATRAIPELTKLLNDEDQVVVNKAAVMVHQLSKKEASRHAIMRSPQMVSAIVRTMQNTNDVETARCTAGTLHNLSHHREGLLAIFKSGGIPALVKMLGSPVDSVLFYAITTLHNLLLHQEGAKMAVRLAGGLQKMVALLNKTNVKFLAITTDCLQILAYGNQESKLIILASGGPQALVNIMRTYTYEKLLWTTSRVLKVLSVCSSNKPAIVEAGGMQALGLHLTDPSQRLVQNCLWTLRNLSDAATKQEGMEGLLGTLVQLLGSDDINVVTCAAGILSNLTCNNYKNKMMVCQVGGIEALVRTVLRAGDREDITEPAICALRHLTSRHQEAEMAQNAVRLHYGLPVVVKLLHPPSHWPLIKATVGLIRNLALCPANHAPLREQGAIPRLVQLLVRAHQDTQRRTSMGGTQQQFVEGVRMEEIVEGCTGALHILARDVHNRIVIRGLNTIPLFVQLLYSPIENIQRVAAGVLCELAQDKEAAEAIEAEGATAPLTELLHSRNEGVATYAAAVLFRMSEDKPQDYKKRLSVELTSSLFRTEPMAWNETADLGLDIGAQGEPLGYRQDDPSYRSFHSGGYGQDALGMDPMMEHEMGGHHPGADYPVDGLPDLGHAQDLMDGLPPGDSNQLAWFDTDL
# Assay: KD50 measurement using competitive fluorescence polarization (FP) with labelled TCF4
# Format: binding
# Conditions: fluorescence polarization, β-catenin
# In short: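 Polarization readout (470 nm excitation, 520 nm emission) tracks loss of labelled TCF4 binding to β-catenin as test compound competes. Conditions were 5 nM tracer, 100 nM β-catenin, room temperature, compound serially diluted from 10 nM to 30 uM; run in triplicate experiments.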
Compound,Kd (read-out: β-Cat FP KD) [µM],β-Cat FP Hill slope,Kd (β-Cat FP KD) [µM]
"CCCCCCCCCCCC(=O)N[C@@H](Cc1c[nH]c2ccccc12)C(=O)N(C)[C@@H](C)C(=O)N[C@@H](CCC(N)=O)C(=O)N[C@H]1CCCCNC(=O)CC[C@@H](C(=O)N[C@@H](Cc2c[nH]cn2)C(=O)N[C@H](C(=O)N[C@@H](CCC(N)=O)C(=O)N[C@@H](CCCNC(=N)N)C(=O)N[C@H](C(=O)N[C@@H](Cc2c[nH]c3ccccc23)C(N)=O)C(C)C)C2CCCCC2)NC(=O)[C@H](CC(=O)O)NC(=O)[C@H](CC(C)C)NC(=O)[C@H]([C@@H](C)CC)NC1=O [compound 447] (HELM PEPTIDE1{[CCCCCCCCCCCC(=O)[*:2]].W.[meA].Q.K.I.L.D.E.H.[O=C([C@@H](N[*:1])C1CCCCC1)[*:2]].Q.R.V.W.[am]}$PEPTIDE1,PEPTIDE1,5:R3-9:R3$$$V2.0)",< 0.4,,
"CC[C@H](C)[C@@H]1NC(=O)[C@H](CO)NC(=O)[C@@H](NC(=O)[C@H](C)N(C)C(=O)[C@H](Cc2c[nH]c3ccccc23)NC(C)=O)CCC(=O)NCCCC[C@@H](C(=O)N[C@@H](CCC(=O)O)C(=O)N[C@@H](Cc2c[nH]cn2)C(=O)N[C@H](C(=O)N[C@@H](CCC(N)=O)C(=O)N[C@@H](CCCNC(=N)N)C(=O)N[C@H](C(=O)N[C@@H](Cc2c[nH]c3ccccc23)C(=O)NCC(N)=O)C(C)C)C(C)C)NC(=O)[C@H](CC(C)C)NC1=O [compound 450] (HELM PEPTIDE1{[ac].W.[meA].E.S.I.L.K.E.H.V.Q.R.V.W.G.[am]}$PEPTIDE1,PEPTIDE1,4:R3-8:R3$$$V2.0)",0.4 to 1,0.79,
"CCCCCCCCCCCC(=O)N[C@@H](Cc1c[nH]c2ccccc12)C(=O)N(C)[C@@H](C)C(=O)N[C@H]1CCC(=O)NCCCC[C@@H](C(=O)N[C@@H](CCC(=O)O)C(=O)N[C@@H](Cc2c[nH]cn2)C(=O)N[C@H](C(=O)N[C@@H](CCC(N)=O)C(=O)N[C@@H](CCCNC(=N)N)C(=O)N[C@H](C(=O)N[C@@H](Cc2c[nH]c3ccccc23)C(=O)NCC(N)=O)C(C)C)C(C)C)NC(=O)[C@H](CC(C)C)NC(=O)[C@H]([C@@H](C)CC)NC(=O)[C@H](CO)NC1=O [compound 451] (HELM PEPTIDE1{[CCCCCCCCCCCC(=O)[*:2]].W.[meA].E.S.I.L.K.E.H.V.Q.R.V.W.G.[am]}$PEPTIDE1,PEPTIDE1,4:R3-8:R3$$$V2.0)",1 to 10,,
"CCCCCCCCCCCC(=O)N[C@@H](Cc1c[nH]c2ccccc12)C(=O)N(C)[C@@H](C)C(=O)N[C@@H](CCC(N)=O)C(=O)N[C@H]1CCCCNC(=O)C[C@@H](C(=O)N[C@@H](Cc2c[nH]cn2)C(=O)N[C@H](C(=O)N[C@@H](CCC(N)=O)C(=O)N[C@@H](C)C(=O)N[C@H](C(N)=O)C(C)C)C2CCCCC2)NC(=O)[C@H](CC(N)=O)NC(=O)[C@H](CC(C)C)NC(=O)[C@H]([C@@H](C)CC)NC1=O [compound 453] (HELM PEPTIDE1{[CCCCCCCCCCCC(=O)[*:2]].W.[meA].Q.K.I.L.N.D.H.[O=C([C@@H](N[*:1])C1CCCCC1)[*:2]].Q.A.V.[am]}$PEPTIDE1,PEPTIDE1,5:R3-9:R3$$$V2.0)",,,1 to 10
"CCCCCCCCCCCCCCCC(=O)N[C@@H](Cc1c[nH]c2ccccc12)C(=O)N(C)[C@@H](C)C(=O)N[C@@H](CCC(N)=O)C(=O)N[C@H]1CCCCNC(=O)C[C@@H](C(=O)N[C@@H](Cc2c[nH]cn2)C(=O)N[C@H](C(=O)N[C@@H](CCC(N)=O)C(=O)N[C@@H](C)C(=O)N[C@H](C(N)=O)C(C)C)C2CCCCC2)NC(=O)[C@H](CC(N)=O)NC(=O)[C@H](CC(C)C)NC(=O)[C@H]([C@@H](C)CC)NC1=O [compound 454] (HELM PEPTIDE1{[CCCCCCCCCCCCCCCC(=O)[*:2]].W.[meA].Q.K.I.L.N.D.H.[O=C([C@@H](N[*:1])C1CCCCC1)[*:2]].Q.A.V.[am]}$PEPTIDE1,PEPTIDE1,5:R3-9:R3$$$V2.0)",,,1 to 10
"CC[C@H](C)[C@@H]1NC(=O)[C@@H](NC(=O)[C@H](CCC(N)=O)NC(=O)C(C)(C)NC(=O)[C@H](Cc2c[nH]c3ccccc23)NC(C)=O)CCCCNC(=O)C[C@@H](C(=O)N[C@@H](Cc2c[nH]cn2)C(=O)N[C@H](C(=O)N[C@@H](CCC(N)=O)C(=O)N[C@@H](CCCNC(=N)N)C(=O)N[C@H](C(=O)N[C@@H](Cc2c[nH]c3ccccc23)C(N)=O)C(C)C)C2CCCCC2)NC(=O)[C@H](CC(N)=O)NC(=O)[C@H](CC(C)C)NC1=O [compound 455] (HELM PEPTIDE1{[ac].W.[Aib].Q.K.I.L.N.D.H.[O=C([C@@H](N[*:1])C1CCCCC1)[*:2]].Q.R.V.W.[am]}$PEPTIDE1,PEPTIDE1,5:R3-9:R3$$$V2.0)",< 0.4,1.03,

# Second part, led by results:
Kd (read-out: β-Cat FP KD) [µM],β-Cat FP Hill slope,Compound,Kd (β-Cat FP KD) [µM]
0.4 to 1,0.7,"CC[C@H](C)[C@@H]1NC(=O)[C@@H](NC(=O)[C@H](CCC(N)=O)NC(=O)[C@H](C)N(C)C(=O)[C@H](Cc2c[nH]c3ccccc23)NC(C)=O)CCCCNC(=O)C[C@@H](C(=O)N[C@@H](Cc2c[nH]cn2)C(=O)N[C@H](C(=O)N[C@@H](CCC(N)=O)C(=O)N[C@@H](C)C(=O)N[C@H](C(=O)N[C@@H](Cc2c[nH]c3ccccc23)C(N)=O)C(C)C)C2CCCCC2)NC(=O)[C@H](CC(N)=O)NC(=O)[C@H](CC(C)C)NC1=O [compound 458] (HELM PEPTIDE1{[ac].W.[meA].Q.K.I.L.N.D.H.[O=C([C@@H](N[*:1])C1CCCCC1)[*:2]].Q.A.V.W.[am]}$PEPTIDE1,PEPTIDE1,5:R3-9:R3$$$V2.0)",
< 0.4,,"CCCCCCCCCCCC(=O)N[C@@H](Cc1c[nH]c2ccccc12)C(=O)N(C)[C@@H](C)C(=O)N[C@@H](CCC(N)=O)C(=O)N[C@H]1CCCCNC(=O)C[C@@H](C(=O)N[C@@H](Cc2c[nH]cn2)C(=O)N[C@H](C(=O)N[C@@H](CCC(N)=O)C(=O)N[C@@H](C)C(=O)N[C@H](C(=O)N[C@@H](Cc2c[nH]c3ccccc23)C(N)=O)C(C)C)C2CCCCC2)NC(=O)[C@H](CC(N)=O)NC(=O)[C@H](CC(C)C)NC(=O)[C@H]([C@@H](C)CC)NC1=O [compound 459] (HELM PEPTIDE1{[CCCCCCCCCCCC(=O)[*:2]].W.[meA].Q.K.I.L.N.D.H.[O=C([C@@H](N[*:1])C1CCCCC1)[*:2]].Q.A.V.W.[am]}$PEPTIDE1,PEPTIDE1,5:R3-9:R3$$$V2.0)",
< 0.4,0.7,"CC[C@H](C)[C@H](NC(=O)[C@H](CO)NC(=O)[C@H](CCC(N)=O)NC(=O)[C@H](C)N(C)C(=O)[C@H](Cc1c[nH]c2ccccc12)NC(C)=O)C(=O)N[C@@H](CC(C)C)C(=O)N[C@@H](CC(=O)O)C(=O)N[C@H]1CCCCNC(=O)C[C@@H](C(=O)N[C@H](C(=O)N[C@@H](Cc2c[nH]c3ccccc23)C(N)=O)C(C)C)NC(=O)[C@H](CCC(N)=O)NC(=O)[C@H](C2CCCCC2)NC(=O)[C@H](Cc2c[nH]cn2)NC1=O [compound 460] (HELM PEPTIDE1{[ac].W.[meA].Q.S.I.L.D.K.H.[O=C([C@@H](N[*:1])C1CCCCC1)[*:2]].Q.D.V.W.[am]}$PEPTIDE1,PEPTIDE1,9:R3-13:R3$$$V2.0)",
< 0.4,,"CCCCCCCCCCCC(=O)N[C@@H](Cc1c[nH]c2ccccc12)C(=O)N(C)[C@@H](C)C(=O)N[C@@H](CCC(N)=O)C(=O)N[C@@H](CO)C(=O)N[C@H](C(=O)N[C@@H](CC(C)C)C(=O)N[C@@H](CC(=O)O)C(=O)N[C@H]1CCCCNC(=O)C[C@@H](C(=O)N[C@H](C(=O)N[C@@H](Cc2c[nH]c3ccccc23)C(N)=O)C(C)C)NC(=O)[C@H](CCC(N)=O)NC(=O)[C@H](C2CCCCC2)NC(=O)[C@H](Cc2c[nH]cn2)NC1=O)[C@@H](C)CC [compound 461] (HELM PEPTIDE1{[CCCCCCCCCCCC(=O)[*:2]].W.[meA].Q.S.I.L.D.K.H.[O=C([C@@H](N[*:1])C1CCCCC1)[*:2]].Q.D.V.W.[am]}$PEPTIDE1,PEPTIDE1,9:R3-13:R3$$$V2.0)",
